Assay results from article PMC12305496, “Bilosomal Encapsulation of Binuclear Phosphino Ru(II)–Cu(II) Compounds Enhances Their Selectivity and Activity toward Lung and Prostate Cancers” (Journal of Medicinal Chemistry, 2025).

Assays:
Format in all cases: cell-based, human
DU145 cells [1] = assay: MTT cytotoxicity assay, DU145
Experimental: (§4) Primary screening of the antiproliferative activity of the heteronuclear Ru­(II)–Cu­(II) complexes was performed by the commonly used MTT assay on four human cancer cell lines: MCF-7 (breast), A549 (lung adenocarcinoma), DU145 (prostate), and PANC-1 (pancreatic). In addition, normal human embryonic kidney (HEK293T) and human keratinocyte (HaCaT) cell lines were used as controls to assess the toxicity of these complexes. The IC50 values (the concentration that causes 50% inhibition of cell proliferation) examined for compounds are compared to those obtained for clinically used cisplatin (CDDP) under the same experimental conditions.
(§5) The MCF7 cell line (human breast adenocarcinoma; morphology: epithelial-like, ATCC: HTB-22), A549 cell line (human lung adenocarcinoma, morphology: epithelial, ATCC: CCL-185), PANC-1 (human pancreatic/duct carcinoma, morphology: epithelial, ATCC: CRL-1469), and HaCaT (human keratinocyte, ATCC PCS-200-011) were cultured in DMEM (Corning), supplemented with 10% fetal bovine serum (FBS) and with 1% streptomycin/penicillin. The DU145 cell line (human prostate carcinoma) and HEK293T and HEK293 cell line (human embryonic kidney) were cultured in minimum essential medium (MEM, Corning) with 10% FBS. Cultures were incubated at 37 °C under a humidified atmosphere containing 5% CO2. Cells were passaged using a solution containing 0.05% trypsin and 0.5 mM EDTA. All media and other ingredients were purchased from ALAB­(Poland) or Thermo Fisher Scientific (USA).
(§6) Since most of the studied compounds are insoluble in aqueous media, they needed to be predissolved in DMSO for biological evaluation. DMSO was used in cell cultures at a concentration below 0.1% (v/v) to minimize its cytotoxicity and changes in gene expression. Cytotoxicity of the studied compounds was assessed using an MTT assay performed according to the protocols described previously. […] After that time, solutions of compounds were washed out, cells were then washed three times with PBS (1X), and a fresh medium was applied. Each compound concentration was tested in five replicates and repeated at least three times. Determined values of IC50 (concentration of a drug required to inhibit the growth of 50% of the cells) are given as mean ± SD. […] IC50 values were determined, after 72 h, from the plots of cell viability in the presence of various concentrations of each compound by matching the dose–response curves.

HaCaT cells = assay: MTT cytotoxicity assay, HaCaT
Experimental: as §4, §5, §6

PANC-1 cells = assay: MTT cytotoxicity assay, PANC-1
Experimental: as §4, §5, §6

[2] = system: BAX and BCL-2 genes' expression; assay: RT-qPCR of BAX and BCL-2 gene expression in A549 cells; conditions: mRNA, control = 1
Experimental: In this study, using Reverse transcription (RT)-quantitative real-time PCR (RT-qPCR), we analyzed whether the expression ratio of Bax to Bcl-2 mRNA correlates with apoptosis or the proliferative activity of cancer cells. −
For this purpose, total RNA was isolated using the Total RNA Mini Plus kit (A&A Biotechnology, Gdansk, Poland) following the manufacturer’s instructions. A total of 1 μg of RNA was subjected to RT into complementary DNA (cDNA) using oligo­(dT)­18 and the TranScriba Kit (A&A Biotechnology, Gdansk, Poland). The qRT-PCR experiments were performed with the Sensitive RT HS-PCR Mix (A&A Biotechnology, Gdansk, Poland) on a real-time PCR thermal cycler from Bio-Rad. The TaqMan primers used in this study were obtained from Thermo Fisher Scientific/Invitrogen, specifically Bax (Hs00180269_m1), Bcl-2 (Hs04986394_s1), and GAPDH (4352932E). The relative transcript quantification was carried out using the 2^–ΔΔCt method with GAPDH as the reference gene.

HEK293T cells = assay: MTT cytotoxicity assay, HEK293T
Experimental: as §4, §5, §6

A549 cells [3] = assay: MTT cytotoxicity assay, A549
Experimental: as §4, §5, §6

MCF7 cells = assay: MTT cytotoxicity assay, MCF7
Text: The IC50 values (the concentration that causes 50% inhibition of cell proliferation) examined for compounds are compared to those obtained for clinically used cisplatin (CDDP) under the same experimental conditions.
The MCF7 cell line (human breast adenocarcinoma; morphology: epithelial-like, ATCC: HTB-22), A549 cell line (human lung adenocarcinoma, morphology: epithelial, ATCC: CCL-185), PANC-1 (human pancreatic/duct carcinoma, morphology: epithelial, ATCC: CRL-1469), and HaCaT (human keratinocyte, ATCC PCS-200-011) were cultured in DMEM (Corning), supplemented with 10% fetal bovine serum (FBS) and with 1% streptomycin/penicillin. […] Cultures were incubated at 37 °C under a humidified atmosphere containing 5% CO2. Cells were passaged using a solution containing 0.05% trypsin and 0.5 mM EDTA.
as §6

A549 cells [4] = assay: Cell cycle analysis by flow cytometry; conditions: A549, 5 μM, 24 h
Experimental: Before treatment, cells were synchronized, and the compounds were applied at various concentrations.
The A549 and DU145 cells (3 × 10^5/well) were seeded in 12-well plates and treated with various concentrations of the examined complexes and CDDP for 24 h. Synchronization of A549 and DU145 cell cultures was performed by serum starvation. Serum starvation is widely used for synchronizing donor cells by arresting them in the G 0/G 1 phase of the cell cycle. Cell cultures were seeded and incubated in growth medium with 20% FBS overnight to synchronize the cell cultures. Then, the cultures were rinsed with PBS (1×) and changed to a serum-free medium. After serum starvation for 18 h, the cells were passaged and released into the cell cycle by the addition of the serum. Then cells were treated with the examined compounds and CDDP for 24 h. For FACS analysis, cell samples were harvested with trypsinization and stained with propidium iodide (20 μg/mL). Cell cycle phase distributions were analyzed by flow cytometry (BD Bioscience). Experiments were reaped at least three times.

DU145 cells [5] = assay: PrestoBlue HS cell viability assay, DU145; conditions: 24 h, dissolved in 0.9% NaCl
Experimental: (§1) Primary screening of the antiproliferative activity of the heteronuclear Ru(II)–Cu(II) complexes was performed by the commonly used MTT assay on four human cancer cell lines: MCF-7 (breast), A549 (lung adenocarcinoma), DU145 (prostate), and PANC-1 (pancreatic). In addition, normal human embryonic kidney (HEK293T) and human keratinocyte (HaCaT) cell lines were used as controls to assess the toxicity of these complexes. […] To verify whether the use of DMSO as a solvent influenced the cytotoxic activity of CDDP, we performed additional experiments (Figure S29) with CDDP (Sigma-Aldrich) dissolved in 0.9% NaCl as per the manufacturer’s recommendation. […]
(§2) Additionally, the viability of A549 and DU145 cell lines, as well as the control cell line HEK293, upon CDDP in 0.9% NaCl, was assessed using the resazurin-based PrestoBlue HS Cell Viability assay, according to the manufacturer’s protocol. […] Results were recorded using fluorescence (excitation 560 nm, emission 590 nm) and absorbance (570 nm), with fluorescence values calculated further using GraphPad Prism software, v. […]
(§3) Figure S29. […] Cells were incubated with varying concentrations of CDDP for 24 h and cell viability was measured by fluorescence intensity (excitation 560 nm, emission 590 nm). […]

A549 cells [6] = assay: PrestoBlue HS cell viability assay, A549; conditions: 24 h, dissolved in 0.9% NaCl
Experimental: as §1, §2, §3

HEK293 cells = assay: PrestoBlue HS cell viability assay, HEK293; conditions: 24 h, dissolved in 0.9% NaCl
Experimental: as §1, §2, §3

[7] = 24 h, Table 2 (bilosome comparison)
[8] = 24 h treatment, DMSO predissolved
[9] = 72 h (24 h + 48 h regeneration)

Row | Compound | IC50 (DU145 cells [1]; [7]) [µM] | IC50 (DU145 cells [1]; [8]) [µM] | IC50 (DU145 cells [1]; [9]) [µM] | IC50 (HaCaT cells; [7]) [µM] | IC50 (HaCaT cells; 24 h treatment) [µM] | IC50 (HaCaT cells; [9]) [µM] | IC50 (PANC-1 cells; 24 h treatment) [µM] | IC50 (PANC-1 cells; [9]) [µM] | Bax/Bcl-2 ratio [2] | IC50 (HEK293T cells; [7]) [µM] | IC50 (HEK293T cells; 24 h treatment) [µM] | IC50 (HEK293T cells; [9]) [µM] | IC50 (A549 cells [3]; [8]) [µM] | IC50 (A549 cells [3]; [9]) [µM] | IC50 (MCF7 cells; 24 h treatment) [µM] | effect on cell cycle (A549 cells [4]) | further results
1 | [Ru(η^6-p-cymene)Cl2Pcfx-Cu(phen)](NO3) [RuPCpCu] | 31 ± 1.05 | 31 ± 1.05 | 15 ± 0.44 | 935 ± 9.3 | 935 ± 9.3 | 834 ± 11.9 | 25.9 ± 0.01 | 21.7 ± 1.02 | 6.4 | 644 ± 13.1 | 644 ± 13.1 | 796 ± 8.9 | 44.4 ± 0.78 | 12.6 ± 0.83 | 25 ± 0.91 | induced cell cycle arrest in the S phase | 
2 | [Ru(η^6-p-cymene)Cl2Plfx-Cu(phen)](NO3) [RuPLmCu] |  | 18.9 ± 1.21 | 12.7 ± 0.92 |  | 936 ± 10.1 | 833 ± 12.2 | 28.3 ± 0.71 | 22.7 ± 1.03 |  |  | 634 ± 9.1 | 782 ± 14.2 | 42.6 ± 0.68 | 24.3 ± 0.91 | 26.7 ± 2.82 |  | 
3 | [Ru(η^6-p-cymene)Cl2Pnfx-Cu(phen)](NO3) [RuPNrCu] |  | 14.5 ± 1.04 | 14.9 ± 0.23 |  | > 1000 | 873 ± 18.8 | 29.5 ± 0.81 | 23.1 ± 1.09 |  |  | 677 ± 12.7 | 798 ± 14.8 | 48.1 ± 0.06 | 18.8 ± 3.4 | 24.7 ± 1.95 |  | 
4 | [Ru(η^6-p-cymene)Cl2Psfx-Cu(phen)] [RuPSfCu] |  | 16 ± 0.05 | 13.5 ± 0.35 |  | > 1000 | 741 ± 13.2 | 27.2 ± 0.86 | 22.1 ± 0.68 |  |  | 546 ± 11.2 | 695 ± 14.2 | 41.1 ± 0.7 | 25.4 ± 1.66 | 17.7 ± 0.93 | induced cell cycle arrest in the S phase | 
5 | [NH2][Pt]([NH2])([Cl])[Cl] [CDDP, cisplatin, reference compound] | 68.3 ± 1.3 | 68.3 ± 1.35 | 65.5 ± 3.61 | 43.3 ± 1.1 | 43.3 ± 1.1 | 17.3 ± 3.1 | 95.6 ± 2.61 | 76.6 ± 1.68 | 4.56 | 21 ± 1.6 | 21 ± 1.81 | 10.3 ± 2.15 | 57 ± 1.3 | 71.7 ± 3.7 | 51.9 ± 4.61 |  | IC50 (DU145 cells [5]): 101 µM; IC50 (A549 cells [3]; [7]): 57 ± 1.3 µM; IC50 (A549 cells [6]): 51.9 µM; IC50 (HEK293 cells): 87 µM; IC50 (MCF7 cells; [9]): 17.7 ± 8.6 µM
